{"source": "patent US20090215713A1", "about": "“Use of atp for the manufacture of a medicament for the prevention and treatment of oxidative stress and related conditions” (priority 2004, published 2009)", "key": {"[1]": {"tested_on": "TNF-α/IL-10 ratio", "assay": "TNF-α/IL-10 ratio in whole blood incubated with H2O2 without LPS+PHA", "type": "cell-based, human", "settings": "300 μM ATP, 5 mM H2O2, no LPS+PHA", "method": "FIG. 14 Effect of ATP on cytokine secretion in whole blood under conditions of oxidative stress. Blood was pre-incubated with ATP or no ATP (control) for 30 min, followed by incubation with H2O2 (5 mM) or 24 h, without addition of LPS+PHA. The TNF-α and IL-10 released into the supernatant was analyzed using the ELISA method. Results are expressed in percentage, 100% being the TNF-α/IL-10 ratio when blood was incubated with H2O2 only, but no ATP (control). The TNF-alpha/IL-10 ratio was reduced by ATP in a concentration-dependent manner, with a 90% reduction at 300 μM ATP, indicating inhibition of inflammatory response.\nThis experiment was performed to test the effects of ATP under circumstances of oxidative stress in healthy subjects, but without LPS-PHA induced stimulation of cytokine production. Whole blood was collected as described for experiment 2, and was pre-incubated with ATP at final concentrations of 100-300 μM, or no ATP (control), for 30 min. Then, blood was incubated with H2O2 (5 mM) or 24 h, without addition of LPS+PHA. and incubated for 24 hours with 5 mM H2O2 at 5% CO2 and 37° C. Cytokine production was measured as in Experiment 2. Results were expressed as the TNF-α/IL-10 ratio relative to the control condition (H2O2 without ATP)."}, "[2]": {"assay": "Side effects of intravenous ATP infusions", "type": "in vivo, human", "settings": "over 60 home infusions in cancer patients", "method": "For reasons of patients' safety, there has been no attempt to administer ATP outside a strict medical setting to date. In particular, WO 03/061568 (Rapaport) discloses the administration of ATP over a period of typically 8-10 hours in an outpatient setting within the hospital. […] Thus, both our data and US 2003/0109486 contradict the disclosure of WO 03/061568.\nIn order to determine the tolerance for ATP as well as the maximally tolerated dose of ATP, the first ATP infusion is preferably administered under medical supervision, usually in an in- or outpatient setting. Subsequent infusions can either be started at the hospital day care centre, at private homes, nursing homes, etc. according to a standardized protocol."}, "[3]": {"tested_on": "IL-10", "assay": "LPS+PHA-induced IL-10 secretion in whole blood under oxidative stress (H2O2)", "type": "cell-based, human", "method": "FIG. 11 Effect of ATP on LPS+PHA-induced IL-10 secretion in whole blood from healthy subjects under conditions of oxidative stress. Two concentrations of H2O2 (1 and 10 mM) were added to whole blood, together with the indicated concentrations of ATP. Then, blood was exposed to 10 μg/ml LPS and 1 μg/ml PHA, and incubated for 24 h. The IL-10 released into the supernatants was analyzed using the ELISA method. […] Data are expressed as the mean values; error bars represent SEM.\nWhole blood of healthy subjects was collected as described for Experiment 2, and pre-incubated with 1 or 10 mM H2O2 at 5% CO2 and 37° C. for 15 min. Then, ATP was added to the blood at final concentrations of 1-300 μM for the 30 min incubation step, and then incubated as in Experiment 2 with LPS/PHA for 24 hours."}, "[4]": {"assay": "ATP infusions in patients with chronic fatigue syndrome (double-blind)", "type": "in vivo, human", "method": "Patients with different diseases received infusions of 10-75 μg/kg·min over 8-24 h, at intervals of 1-4 weeks in different randomized clinical trials. In all cases, the first. infusion was given under clinical supervision, subsequent infusions were given in the setting of private homes. Preliminary results in small numbers of patients with persistent rheumatoid arthritis, chronic fatigue syndrome, and cancer in the pre-terminal stage, and lung cancer during curative radiotherapy are given below.\nIn a double-blind design, 8 out of 9 patients with chronic fatigue syndrome who had been treated with ATP (8 infusions of 24 h), spontaneously reported the following unexpected beneficial effects of ATP infusion: • less pain on the day after the infusion • feeling better during the 8-week infusion period than before or afterwards • more physical energy on the day after the infusion • felt better during the complete infusion period: less pain, better performance status, happier, mentally stronger, less tired, sleeping better • fewer ulcers during the infusion period • feeling less weak/feeble on the day after the infusion, feeling muscles “in a positive sense” In 5 out of 9 patients, these effects were already noted on the day after the first ATP infusion. […] In the placebo group, not even one out of 9 patients spontaneously reported any of such improvements."}, "[5]": {"tested_on": "TNF-α", "assay": "LPS+PHA-induced TNF-α secretion in whole blood from healthy subjects (ELISA)", "type": "cell-based, human", "method": "FIG. 7 Effect of ATP on LPS+PHA-induced TNF-α secretion in whole blood from healthy subjects. The whole blood was exposed to 10 μg/ml LPS and 1 μg/ml PHA with indicated concentrations of ATP for 24 h. The TNF-α released into the supernatants was analyzed using the ELISA method. Results are expressed in percentage, 100% being the TNF-α release under stimulation by LPS+PHA without ATP. […] Data are expressed as the mean values; error bars represent SEM. *, different from control (stimulation by LPS+PHA without ATP) (P<0.05).\nFIG. 13 Effect of different purinergic compounds on LPS+PHA-induced TNF-α secretion in whole blood. The whole blood was exposed to 10 μg/ml LPS and 1 μg/ml PHA with the indicated purinergic compounds at the concentration of 300 μM for 24 h. The TNF-α released into the supernatant was analyzed using the ELISA method. Results are expressed in percentage, 100% being the TNF-α release under stimulation by LPS+PHA without addition of a purinergic compound (control). […] The TNF-α release induced by LPS+PHA from whole blood was not inhibited by UTP, UDP or CTP. Data are expressed as the mean values; error bars represent SEM.\nBlood was collected from 8 healthy subjects in heparin containing vacutainer tubes. All incubations were performed in duplicate. ATP was dissolved in RPMI 1640 culture medium, at a final concentration of 1-300 μM, and blood pre-incubated with ATP at 5% CO2 at 37 DC for 30 min. After stimulation with LPS en PHA (10 and 1 μg/ml final concentration, respectively), the plates were incubated in 5% CO2 at 37° C. for 24 h. Cell-free supernatant fluids were then collected by centrifugation (6000 rpm, 10 min at 4° C.) and stored at −20° C. until tested for presence of cytokines. All cytokines were quantified by means of PeliKine Compact human ELISA kits (CLB/Sanquin, The Netherlands), based on appropriate and validated sets of monoclonal antibodies.\nWhole blood was collected and stimulated with LPS+PHA as described for Experiment 2. ATP, dissolved in RPMI 1640 culture medium, was added to the blood at a final concentration of 1-1000 μM. The agonists were added in the same way as ATP, however their stock solutions are prepared in PBS and further diluted in medium. All incubations are performed in duplicate."}}}
{"smiles": "Nc1ncnc2c1ncn2[C@@H]1O[C@H](COP(=O)(O)OP(=O)(O)OP(=O)(O)O)[C@@H](O)[C@H]1O", "note": "[ATP, Adenosine 5′-triphosphate]", "values": [{"measurement": "reduction in the TNF-α/IL-10 ratio", "setting": "[1]", "result": 90, "unit": "%"}, {"measurement": "serious side effects grade 3-4 on the WHO Common Toxicity Criteria scale", "setting": "[2]", "result": "no serious side effects"}, {"measurement": "increase in IL-10 release", "setting": "[3]; 300 μM ATP, 1 or 10 mM H2O2, LPS-PHA", "result": "50-60%"}, {"measurement": "effect on LPS+PHA-induced IL-10 release", "setting": "[3]; 1 or 10 mM H2O2", "result": "significantly increased"}, {"measurement": "patients spontaneously reporting beneficial effects", "setting": "[4]; 8 infusions of 24 h", "result": "8 out of 9"}, {"measurement": "patients noting these effects on the day after the first ATP infusion", "setting": "[4]; human, in vivo", "result": "5 out of 9"}, {"measurement": "effect of purinergic compound on LPS+PHA-induced TNF-α release", "setting": "[5]; 300 μM, 24 h", "result": "greatest inhibition"}, {"measurement": "effect on inhibiting TNFα and stimulating IL-10 production", "setting": "[5]; LPS-PHA stimulated whole blood, Experiment 4", "result": "more effective"}, {"measurement": "effect on LPS+PHA-induced TNF-α release", "setting": "[5]; indicated ATP concentrations, 24 h", "result": "significantly inhibited"}]}
